Assay results from ChEMBL document CHEMBL3885861, “Open TG-GATES”.

Species on record: Rattus norvegicus
Assay: Open TG-GATES - Regimen: Single
Type: toxicity, organism-based, Sprague-Dawley
Set-up: regimen Single, gender Male, age 6 weeks
Conditions: in vivo, po, 10 mg/kg, route gavage, dose level Low; for Bas / Eos / Hb / Ht / Lym / MCH / MCHC / MCV / Mono / Neu / Plat / RBC / Ret / WBC: tissue Blood; for KIDNEY_L / KIDNEY_R / KIDNEY_TOTAL: tissue Kidney; for LIVER: tissue Liver; for A/G / ALP / ALT / AST / BUN / CRE / Ca / Cl / DBIL / GLC / IP / K / LDH / Na / PL / RALB / TBIL / TC / TG / TP / gamma-GTP: tissue Plasma

## Cc1ccc2cc3c(ccc4ccccc43)c3c2c1CC3 [3-METHYLCHOLANTHRENE]
3 h
  TERMINAL_BW: 210.8 g
  Bas: 0%
  Eos: 0.8%
  Hb: 12.6 g/dL
  Ht: 39.3%
  Lym: 77.6%
  MCH: 20.5 pg
  MCHC: 32.2%
  MCV: 63.7 fL
  Mono: 3.4%
  Neu: 17.8%
  Plat: 130.6 x10_4/uL
  RBC: 616.6 x10_4/ul
  Ret: 9.1%
  WBC: 94.8 x10_2/uL
  KIDNEY_L: 0.9 g
  KIDNEY_R: 0.9 g
  KIDNEY_TOTAL: 1.8 g
  LIVER: 9.5 g
  A/G: 1
  ALP: 1720 IU/L
  ALT: 46.6 IU/L
  AST: 81 IU/L
  BUN: 13.1 mg/dL
  CRE: 0.1 mg/dL
  Ca: 10.9 mg/dL
  Cl: 103 meq/L
  DBIL: 0.002 mg/dL
  GLC: 175.4 mg/dL
  IP: 8.4 mg/dL
  K: 4.2 meq/L
  LDH: 201.8 IU/L
  Na: 139.7 meq/L
  PL: 172 mg/dL
  RALB: 2.9 g/dL
  TBIL: 0.004 mg/dL
  TC: 80 mg/dL
  TG: 185.2 mg/dL
  TP: 5.6 g/dL
  gamma-GTP: 0.7 IU/L
6 h
  TERMINAL_BW: 205.3 g
  Bas: 0%
  Eos: 0.4%
  Hb: 12.9 g/dL
  Ht: 38.8%
  Lym: 73.8%
  MCH: 20.7 pg
  MCHC: 33.3%
  MCV: 62.1 fL
  Mono: 3.6%
  Neu: 21.2%
  Plat: 131.8 x10_4/uL
  RBC: 625.8 x10_4/ul
  Ret: 7.9%
  WBC: 136.1 x10_2/uL
  KIDNEY_L: 0.9 g
  KIDNEY_R: 0.9 g
  KIDNEY_TOTAL: 1.8 g
  LIVER: 8.3 g
  A/G: 1
  ALP: 1483.2 IU/L
  ALT: 37.6 IU/L
  AST: 74.6 IU/L
  BUN: 8.2 mg/dL
  CRE: 0.1 mg/dL
  Ca: 10.6 mg/dL
  Cl: 105.3 meq/L
  DBIL: 0.002 mg/dL
  GLC: 165.8 mg/dL
  IP: 9.2 mg/dL
  K: 4.2 meq/L
  LDH: 162 IU/L
  Na: 140.5 meq/L
  PL: 160.6 mg/dL
  RALB: 2.8 g/dL
  TBIL: 0.004 mg/dL
  TC: 87.6 mg/dL
  TG: 79.2 mg/dL
  TP: 5.6 g/dL
  gamma-GTP: 0.7 IU/L
9 h
  TERMINAL_BW: 205.9 g
  Bas: 0%
  Eos: 0.8%
  Hb: 12.2 g/dL
  Ht: 37.7%
  Lym: 74.2%
  MCH: 20.2 pg
  MCHC: 32.5%
  MCV: 62 fL
  Mono: 2.8%
  Neu: 21.6%
  Plat: 122.2 x10_4/uL
  RBC: 608.4 x10_4/ul
  Ret: 8.9%
  WBC: 114.6 x10_2/uL
  KIDNEY_L: 0.9 g
  KIDNEY_R: 0.9 g
  KIDNEY_TOTAL: 1.7 g
  LIVER: 8.3 g
  A/G: 1
  ALP: 1540.8 IU/L
  ALT: 33.6 IU/L
  AST: 72 IU/L
  BUN: 11.6 mg/dL
  CRE: 0.1 mg/dL
  Ca: 10.5 mg/dL
  Cl: 104.7 meq/L
  DBIL: 0 mg/dL
  GLC: 174.4 mg/dL
  IP: 10.2 mg/dL
  K: 4.4 meq/L
  LDH: 186.6 IU/L
  Na: 142.1 meq/L
  PL: 155.2 mg/dL
  RALB: 2.8 g/dL
  TBIL: 0.002 mg/dL
  TC: 81.4 mg/dL
  TG: 90.6 mg/dL
  TP: 5.5 g/dL
  gamma-GTP: 0.8 IU/L
24 h
  TERMINAL_BW: 216.8 g
  Bas: 0%
  Eos: 0.2%
  Hb: 12.7 g/dL
  Ht: 38.9%
  Lym: 79%
  MCH: 20.2 pg
  MCHC: 32.6%
  MCV: 62 fL
  Mono: 3.4%
  Neu: 16.2%
  Plat: 120.4 x10_4/uL
  RBC: 627.6 x10_4/ul
  Ret: 7.9%
  WBC: 105.1 x10_2/uL
  KIDNEY_L: 0.9 g
  KIDNEY_R: 1 g
  KIDNEY_TOTAL: 1.9 g
  LIVER: 10.7 g
  A/G: 1
  ALP: 1758 IU/L
  ALT: 40.6 IU/L
  AST: 73.8 IU/L
  BUN: 15.7 mg/dL
  CRE: 0.1 mg/dL
  Ca: 10.9 mg/dL
  Cl: 103.5 meq/L
  DBIL: 0.002 mg/dL
  GLC: 179.6 mg/dL
  IP: 6.9 mg/dL
  K: 4.4 meq/L
  LDH: 173.4 IU/L
  Na: 141.7 meq/L
  PL: 165.6 mg/dL
  RALB: 2.8 g/dL
  TBIL: 0.002 mg/dL
  TC: 81.6 mg/dL
  TG: 150.3 mg/dL
  TP: 5.5 g/dL
  gamma-GTP: 0.8 IU/L
